According to patent publication US9029378B2, “Substituted bicyclic aromatic carboxamide and urea compounds as vanilloid receptor ligands” (Gruenenthal GmbH, priority 2011, dated 2015):

molecular target: T1, vanilloid receptor 1 (VR1/TRPV1 receptor) (Homo sapiens, UniProt Q8NER1); assay: Functional testing on the vanilloid receptor 1 (FLIPR Ca2+ influx assay, capsaicin); assay type: cell-based, human being; design: key to (f) (human being) Cap: effect in words (agonist / no effect): AG=agonist; NE=no effect; details: @0.1 μM; Cap=capsaicin; read-out: inhibition (as a percentage), (f) (human being) Cap
T1 construct: expressed in transfected cells; host or cells: CHO K1
T1 sequence (Q8NER1 whole entry): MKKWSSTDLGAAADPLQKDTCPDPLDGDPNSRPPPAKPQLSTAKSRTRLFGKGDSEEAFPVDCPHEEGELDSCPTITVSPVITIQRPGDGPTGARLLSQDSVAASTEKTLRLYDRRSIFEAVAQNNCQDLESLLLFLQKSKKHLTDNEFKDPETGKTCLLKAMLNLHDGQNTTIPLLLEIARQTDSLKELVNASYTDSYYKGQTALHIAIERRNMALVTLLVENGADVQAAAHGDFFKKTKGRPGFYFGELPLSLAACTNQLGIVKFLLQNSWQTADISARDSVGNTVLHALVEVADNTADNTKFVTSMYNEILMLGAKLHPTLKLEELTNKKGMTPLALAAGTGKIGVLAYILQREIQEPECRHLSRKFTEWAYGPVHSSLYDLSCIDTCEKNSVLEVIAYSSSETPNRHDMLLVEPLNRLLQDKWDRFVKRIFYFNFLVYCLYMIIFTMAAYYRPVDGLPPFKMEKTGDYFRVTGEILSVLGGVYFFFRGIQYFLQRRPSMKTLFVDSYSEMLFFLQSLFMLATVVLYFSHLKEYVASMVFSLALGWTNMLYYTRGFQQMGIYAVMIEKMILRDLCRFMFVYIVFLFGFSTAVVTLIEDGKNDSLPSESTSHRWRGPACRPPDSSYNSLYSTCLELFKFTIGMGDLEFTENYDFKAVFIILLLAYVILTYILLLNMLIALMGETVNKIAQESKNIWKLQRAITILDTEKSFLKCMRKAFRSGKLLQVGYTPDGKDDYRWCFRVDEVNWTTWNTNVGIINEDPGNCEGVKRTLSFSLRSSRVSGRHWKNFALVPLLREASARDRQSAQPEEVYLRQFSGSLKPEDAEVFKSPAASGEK
Method: Furthermore, preference may be given to compounds according to the invention that cause a 50 percent displacement of capsaicin, which is present at a concentration of 100 nM, in a FLIPR assay with CHO K1 cells which were transfected with the human VR1 gene at a concentration of less than 2,000 nM, preferably less than 1,000 nM, particularly preferably less than 300 nM, most particularly preferably less than 100 nM, even more preferably less than 75 nM, additionally preferably less than 50 nM, most preferably less than 10 nM.
In the process, the Ca^2+ influx is quantified in the FLIPR assay with the aid of a Ca^2+-sensitive dye (type Fluo-4, Molecular Probes Europe BV, Leiden, the Netherlands) in a fluorescent imaging plate reader (FLIPR, Molecular Devices, Sunnyvale, USA), as described hereinafter.
Pharmacological Methods I. Functional Testing Carried Out on the Vanilloid Receptor 1 (VR1/TRPV1 Receptor) […]
The number of cells in the suspension is set to 3×10^5 per mL and 150 μL of this suspension are in each case introduced into a recess in the cell culture plates coated as described hereinbefore. In the incubator the plates are left for two to three days at 37° C., 5% by volume of CO2 and 95% relative humidity. Subsequently, the cells are loaded with 2 μM of Fluo-4 and 0.01% by volume of Pluronic F127 (Molecular Probes Europe BV, Leiden, the Netherlands) in HBSS buffer (Hank's buffered saline solution, Gibco Invitrogen GmbH, Karlsruhe, Germany) for 30 min at 37° C., washed 3 times with HBSS buffer and after further incubation for 15 minutes at room temperature used for Ca^2+ measurement in a FLIPR assay. The Ca^2+-dependent fluorescence is in this case measured before and after the addition of substances (λex=488 nm, λem=540 nm). Quantification is carried out by measuring the highest fluorescence intensity (FC, fluorescence counts) over time.
The FLIPR protocol consists of 2 substance additions. First the compounds to be tested (10 μM) are pipetted onto the cells and the Ca^2+ influx is compared with the control (capsaicin 10 μM). This provides the result in % activation based on the Ca^2+ signal after the addition of 10 μM of capsaicin (CP). After 5 minutes' incubation, 100 nM of capsaicin are applied and the Ca^2+ influx is also determined.
Desensitising agonists and antagonists lead to suppression of the Ca^2+ influx. The % inhibition is calculated compared to the maximum achievable inhibition with 10 μM of capsazepine. Triple analyses (n=3) are carried out and repeated in at least 3 independent experiments (N=4). Starting from the percentage displacement caused by different concentrations of the compounds to be tested of general formula I, IC50 inhibitory concentrations which cause a 50-percent displacement of capsaicin were calculated. Ki values for the test substances were obtained by conversion by means of the Cheng-Prusoff equation (Cheng, Prusoff; Biochem. Pharmacol. 22, 3099-3108, 1973).
The affinity of the compounds of to the invention for the vanilloid receptor 1 (VR1/TRPV1 receptor) was determined as described hereinbefore (pharmacological method I). The compounds of the invention display outstanding affinity to the VR1/TRPV1 receptor (Table 2). In Table 2 the abbreviations below have the following meanings: • Cap=capsaicin • AG=agonist • NE=no effect
The value after the “@” symbol indicates the concentration at which the inhibition (as a percentage) was respectively determined.

Structure (SMILES) | inhibition at 0.1 µM [%]
CC1CCN(c2nc(C(F)(F)F)ccc2CNC(=O)Nc2cccc3cc[nH]c23)CC1 [Example 36, 1-(1H-Indol-7-yl)-3-((2-(4-methylpiperidin-1-yl)-6-(trifluoromethyl)pyridin-3-yl)methyl)urea] | 37

same assay, conditions: @1 μM; Cap=capsaicin; read-out: inhibition (as a percentage), (f) (human being) Cap

Structure (SMILES) | inhibition at 1 µM [%]
CC1CCN(c2nc(C(F)(F)F)ccc2CNC(=O)Nc2ccc3ncccc3c2)CC1 [Example 69, 1-((2-(4-Methylpiperidin-1-yl)-6-(trifluoromethyl)pyridin-3-yl)methyl)-3-(quinolin-6-yl)urea] | 40

same assay, conditions: @5 μM; Cap=capsaicin; read-out: inhibition (as a percentage), (f) (human being) Cap

Structure (SMILES) | inhibition at 5 µM [%]
CC1CCN(c2nc(C(F)(F)F)ccc2CNC(=O)Nc2ccnc3[nH]ncc23)CC1 [Example 9, 1-((2-(4-Methylpiperidin-1-yl)-6-(trifluoromethyl)pyridin-3-yl)methyl)-3-(1H-pyrazolo[3,4-b]pyridin-4-yl)urea] | 22
O=C(NCc1ccc(C(F)(F)F)nc1SC1CCCCC1)Nc1ccc2ccccc2n1 [Example 11, 1-((2-(Cyclohexylthio)-6-(trifluoromethyl)pyridin-3-yl)methyl)-3-(quinolin-2-yl)urea] | 19

same assay, conditions: Cap=capsaicin

Structure (SMILES) | (f) (human being) Cap: effect in words (agonist / no effect)
CC1CCN(c2nc(C(F)(F)F)ccc2CNC(=O)Nc2ccc3ncn(C)c3c2)CC1 [Example 26, 1-(1-Methyl-1H-benzo[d]imidazol-6-yl)-3-((2-(4-methylpiperidin-1-yl)-6-(trifluoromethyl)pyridin-3-yl)methyl)urea] | AG
CC1CCN(c2nc(C(F)(F)F)ccc2CNC(=O)Nc2nccc3ccccc23)CC1 [Example 20, 1-(Isoquinolin-1-yl)-3-((2-(4-methylpiperidin-1-yl)-6-(trifluoromethyl)pyridin-3-yl)methyl)urea] | NE

same assay, conditions: Cap=capsaicin (100 nM); Ki from IC50 by Cheng-Prusoff equation; read-out: (f) Ki (human being) [nM] Cap

Structure (SMILES) | Ki [nM]
CN(C)C1(c2ccccc2)CCN(c2nc(C(F)(F)F)ccc2CNC(=O)Nc2cccc3[nH]ccc23)CC1 [Example 39, 1-((2-(4-(Dimethylamino)-4-phenylpiperidin-1-yl)-6-(trifluoromethyl)pyridin-3-yl)methyl)-3-(1H-indol-4-yl)urea] | 8
CC1CCN(c2nc(C(F)(F)F)ccc2CNC(=O)Nc2ccc3ccncc3c2)CC1 [Example 84, 1-(Isoquinolin-7-yl)-3-((2-(4-methylpiperidin-1-yl)-6-(trifluoromethyl)pyridin-3-yl)methyl)urea] | 8
CC1CCN(c2nc(C(F)(F)F)ccc2CNC(=O)Nc2cnc3ccccc3c2)CC1 [Example 12, 1-((2-(4-Methylpiperidin-1-yl)-6-(trifluoromethyl)pyridin-3-yl)methyl)-3-(quinolin-3-yl)urea] | 9
Cc1nccc2cccc(NC(=O)NCc3ccc(C(F)(F)F)nc3N3CCC(C)CC3)c12 [Example 86, 1-(1-Methylisoquinolin-8-yl)-3-((2-(4-methylpiperidin-1-yl)-6-(trifluoromethyl)pyridin-3-yl)methyl)urea] | 52
CCCCOc1nc(C(F)(F)F)ccc1CNC(=O)Nc1cccc2ncccc12 [Example 67, 1-((2-Butoxy-6-(trifluoromethyl)pyridin-3-yl)methyl)-3-(quinolin-5-yl)urea] | 2
CC(=O)n1ccc2c(NC(=O)NCc3ccc(C(F)(F)F)nc3N3CCC(C)CC3)cccc21 [Example 41, 1-(1-Acetyl-1H-indol-4-yl)-3-((2-(4-methylpiperidin-1-yl)-6-(trifluoromethyl)pyridin-3-yl)methyl)urea] | 8
CC1CCN(c2nc(C(F)(F)F)ccc2CNC(=O)Nc2cccc3c(O)ncnc23)CC1 [Example 89, 1-(4-Hydroxyquinazolin-8-yl)-3-((2-(4-methylpiperidin-1-yl)-6-(trifluoromethyl)pyridin-3-yl)methyl)urea] | 17
CC1CCN(c2nc(C(F)(F)F)ccc2CNC(=O)Nc2ccc3nc(N)sc3c2)CC1 [Example 34, 1-(2-Aminobenzo[d]thiazol-6-yl)-3-((2-(4-methylpiperidin-1-yl)-6-(trifluoromethyl)pyridin-3-yl)methyl)urea] | 50

The remaining lines, values ahead:

Ki [nM] | Structure (SMILES)
1 | Cc1nccc2c(NC(=O)NCc3ccc(C(F)(F)F)nc3N3CCC(C)CC3)cccc12 [Example 78, 1-(1-Methylisoquinolin-5-yl)-3-((2-(4-methylpiperidin-1-yl)-6-(trifluoromethyl)pyridin-3-yl)methyl)urea]
0.1 | CC1CCN(c2nc(C(C)(C)C)ccc2CNC(=O)Nc2cccc3cnccc23)CC1 [Example 76, 1-((6-Tert-butyl-2-(4-methylpiperidin-1-yl)pyridin-3-yl)methyl)-3-(isoquinolin-5-yl)urea]
4 | Cc1[nH]c2c(NC(=O)NCc3ccc(C(F)(F)F)nc3N3CCC(C)CC3)cccc2c1C [Example 37, 1-(2,3-Dimethyl-1H-indol-7-yl)-3-((2-(4-methylpiperidin-1-yl)-6-(trifluoromethyl)pyridin-3-yl)methyl)urea]
0.4 | CC1CCN(c2nc(C(F)(F)F)ccc2CNC(=O)Nc2cccc3[nH]ncc23)CC1 [Example 44, 1-(1H-indazol-4-yl)-3-((2-(4-methylpiperidin-1-yl)-6-(trifluoromethyl)pyridin-3-yl)methyl)urea]
2 | CC1CCN(c2nc(C(C)(C)C)ccc2CNC(=O)Nc2cc(F)cc3[nH]ncc23)CC1 [Example 52, 1-((6-Tert-butyl-2-(4-methylpiperidin-1-yl)pyridin-3-yl)methyl)-3-(6-fluoro-1H-indazol-4-yl)urea]
4 | Cc1nc2ccc(NC(=O)NCc3ccc(C(F)(F)F)nc3N3CCC(C)CC3)cc2s1 [Example 33, 1-(2-Methylbenzo[d]thiazol-6-yl)-3-((2-(4-methylpiperidin-1-yl)-6-(trifluoromethyl)pyridin-3-yl)methyl)urea]
2 | CC1CCN(c2nc(C(F)(F)F)ccc2CNC(=O)C(C)c2ccnc3[nH]ncc23)CC1 (stereo not drawn) [Example 8, N-((2-(4-Methylpiperidin-1-yl)-6-(trifluoromethyl)pyridin-3-yl)methyl)-2-(1H-pyrazolo[3,4-b]pyridin-4-yl)propanamide]
7 | O=C(NCc1ccc(C(F)(F)F)cc1C1CCCC1)Nc1cc(F)cc2[nH]ncc12 [Example 54, 1-(2-Cyclopentyl-4-(trifluoromethyl)benzyl)-3-(6-fluoro-1H-indazol-4-yl)urea]
7 | CC1CCN(c2nc(C(F)(F)F)ccc2CNC(=O)Nc2ccc3cnn(C)c3c2)CC1 [Example 27, 1-(1-Methyl-1H-indazol-6-yl)-3-((2-(4-methylpiperidin-1-yl)-6-(trifluoromethyl)pyridin-3-yl)methyl)urea]
1 | O=C(NCc1ccc(C(F)(F)F)nc1SC1CCCCC1)Nc1cccc2ccncc12 [Example 85, 1-((2-(Cyclohexylthio)-6-(trifluoromethyl)pyridin-3-yl)methyl)-3-(isoquinolin-8-yl)urea]
2 | CC(C)(C)COc1nc(C(F)(F)F)ccc1CNC(=O)Nc1cccc2ncccc12 [Example 66, 1-((2-(Neopentyloxy)-6-(trifluoromethyl)pyridin-3-yl)methyl)-3-(quinolin-5-yl)urea]
3 | CC1CCN(c2nc(C(F)(F)F)ccc2CNC(=O)Nc2cc(F)cc3[nH]ncc23)CC1 [Example 51, 1-(6-Fluoro-1H-indazol-4-yl)-3-((2-(4-methylpiperidin-1-yl)-6-(trifluoromethyl)pyridin-3-yl)methyl)urea]
0.7 | CC1CCN(c2cc(C(F)(F)F)ccc2CNC(=O)Nc2cccc3ncccc23)CC1 [Example 63, 1-(2-(4-Methylpiperidin-1-yl)-4-(trifluoromethyl)benzyl)-3-(quinolin-5-yl)urea]
